Laboratory results taken from US8791123B2, “Substituted pyrazolo[1,5-a]pyrimidine compounds as Trk kinase inhibitors” (Array Biopharma, Inc., priority 2009, dated 2014).
Read-outs that look alike come from different tables or passages of the source.

How the values were obtained:
[1] = target: TrkA (histidine-tagged recombinant human TrkA, cytoplasmic domain) (Homo sapiens (Human), UniProt P04629); assay: TrkA ELISA Assay; type: biochemical; conditions: Table 1; ELISA, 500 μM ATP; read-out: TrkA Enzyme IC50
Chain of TrkA (histidine-tagged recombinant human TrkA, cytoplasmic domain) (P04629 440-796): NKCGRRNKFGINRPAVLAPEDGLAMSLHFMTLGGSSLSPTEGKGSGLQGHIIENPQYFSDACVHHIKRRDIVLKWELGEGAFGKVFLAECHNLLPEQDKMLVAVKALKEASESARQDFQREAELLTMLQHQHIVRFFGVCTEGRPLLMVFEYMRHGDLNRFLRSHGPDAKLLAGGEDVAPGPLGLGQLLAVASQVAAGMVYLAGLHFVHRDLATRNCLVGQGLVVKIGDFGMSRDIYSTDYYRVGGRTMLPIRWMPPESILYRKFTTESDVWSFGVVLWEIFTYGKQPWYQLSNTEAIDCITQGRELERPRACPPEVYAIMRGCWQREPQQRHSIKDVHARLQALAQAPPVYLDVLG
Summary of the method: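 His-tagged human TrkA cytoplasmic domain phosphorylated poly(Glu,Ala,Tyr 6:3:1) coated at 0.025 mg/mL, with inhibitors present. Phosphotyrosine was detected with HRP-conjugated PY20 antibody (0.2 μg/mL) and TMB, read as absorbance at 450 nm after phosphoric acid stop.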

Human Jak2 kinase domain = Human Jak2 kinase domain (Homo sapiens (Human), UniProt O60674); assay: Jak2 Inhibition Assay (Omnia kinase assay); type: biochemical; conditions: read-out: Jak2 Enzyme IC50
Chain of Human Jak2 kinase domain (O60674 808-1132): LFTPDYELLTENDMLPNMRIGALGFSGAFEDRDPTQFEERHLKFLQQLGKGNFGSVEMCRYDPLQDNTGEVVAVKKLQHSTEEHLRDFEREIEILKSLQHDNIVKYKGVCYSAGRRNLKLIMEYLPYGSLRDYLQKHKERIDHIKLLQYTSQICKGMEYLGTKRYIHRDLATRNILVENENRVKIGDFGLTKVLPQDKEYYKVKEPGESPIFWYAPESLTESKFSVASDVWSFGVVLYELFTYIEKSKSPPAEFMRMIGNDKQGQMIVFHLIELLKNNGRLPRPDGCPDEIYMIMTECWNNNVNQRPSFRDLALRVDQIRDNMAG

[2] = Table 1, 500 μM ATP, >1000 nM when >50% inhibition not observed at 1000 nM

Structure (SMILES)	IC50 [1] [µM]	IC50 (Human Jak2 kinase domain; [2]) [µM]	IC50 (Human Jak2 kinase domain) [µM]
CC1(C)CC[C@H](c2cc(F)ccc2F)N1c1ccn2ncc(C(=O)NC3CC3)c2n1 [Example 68, (R)—N-cyclopropyl-5-(5-(2,5-difluorophenyl)-2,2-dimethylpyrrolidin-1-yl)pyrazolo[1,5-a]pyrimidine-3-carboxamide]	0.0066	> 1	–
Cn1cc(F)cc([C@H]2CCCN2c2ccn3ncc(C(=O)Nc4ccc(F)cn4)c3n2)c1=O [Example 239, (R)-5-(2-(5-fluoro-1-methyl-2-oxo-1,2-dihydropyridin-3-yl)pyrrolidin-1-yl)-N-(5-fluoropyridin-2-yl)pyrazolo[1,5-a]pyrimidine-3-carboxamide]	0.0101	> 1	–
CC1(C)CC[C@H](c2cc(F)ccc2F)N1c1ccn2ncc(C(N)=O)c2n1 [Example 67, (R)-5-(5-(2,5-difluorophenyl)-2,2-dimethylpyrrolidin-1-yl)pyrazolo[1,5-a]pyrimidine-3-carboxamide]	0.0051	> 1	–
CC(C)(CF)NC(=O)c1cnn2ccc(N3CCC[C@@H]3c3cncc(F)c3)nc12 [Example 71, (R)—N-(1-fluoro-2-methylpropan-2-yl)-5-(2-(5-fluoropyridin-3-yl)pyrrolidin-1-yl)pyrazolo[1,5-a]pyrimidine-3-carboxamide]	0.00865	> 1	–
Cc1ncc(F)cc1[C@H]1CCCN1c1ccn2ncc(C(=O)NCCO)c2n1 [Example 188, (R)-5-(2-(5-fluoro-2-methylpyridin-3-yl)pyrrolidin-1-yl)-N-(2-hydroxyethyl)pyrazolo[1,5-a]pyrimidine-3-carboxamide]	0.083	> 1	–
CC(C)(CO)CNC(=O)c1cnn2ccc(N3CCC[C@@H]3c3cncc(F)c3)nc12 [Example 125, (R)-5-(2-(5-fluoropyridin-3-yl)pyrrolidin-1-yl)-N-(3-hydroxy-2,2-dimethylpropyl)pyrazolo[1,5-a]pyrimidine-3-carboxamide]	0.0128	> 1	–
O=C(N[C@@H]1CCC[C@H]1O)c1cnn2ccc(N3CCC[C@@H]3c3cncc(F)c3)nc12 [Example 133, 5-((R)-2-(5-fluoropyridin-3-yl)pyrrolidin-1-yl)-N-((1R,2R)-2-hydroxycyclopentyl)pyrazolo[1,5-a]pyrimidine-3-carboxamide]	0.016	> 1	–
CC(C)NC(=O)c1cnn2ccc(N3[C@@H](c4cncc(F)c4)CC[C@@]3(C)CO)nc12 [Example 219, 5-((2S,5R)-5-(5-fluoropyridin-3-yl)-2-(hydroxymethyl)-2-methylpyrrolidin-1-yl)-N-isopropylpyrazolo[1,5-a]pyrimidine-3-carboxamide]	0.188	> 1	–
CONC(=O)c1cnn2ccc(N3CCC[C@@H]3c3cccc(F)c3)nc12 [Example 75]	0.00695	> 1	–
CC1(C)OCC(COc2ccc(F)cc2[C@H]2CCCN2c2ccn3ncc(C(N)=O)c3n2)O1 (stereo partly drawn) [Example 205, 5-((2R)-2-(2-((2,2-dimethyl-1,3-dioxolan-4-yl)methoxy)-5-fluorophenyl)pyrrolidin-1-yl)pyrazolo[1,5-a]pyrimidine-3-carboxamide]	0.0143	> 1	–
NC(=O)c1cnn2ccc(N3CCC[C@@H]3c3cc(F)cc(OCC(O)CO)c3)nc12 (stereo partly drawn) [Example 209, 5-((2R)-2-(3-(2,3-dihydroxypropoxy)-5-fluorophenyl)pyrrolidin-1-yl)pyrazolo[1,5-a]pyrimidine-3-carboxamide]	0.0171	> 1	–
CC1(C)OCC(COc2ccc(F)cc2[C@H]2CCCN2c2ccn3ncc(C(=O)NC4CC4)c3n2)O1 (stereo partly drawn) [Example 204, N-cyclopropyl-5-((2R)-2-(2-((2,2-dimethyl-1,3-dioxolan-4-yl)methoxy)-5-fluorophenyl)pyrrolidin-1-yl)pyrazolo[1,5-a]pyrimidine-3-carboxamide]	0.0166	> 1	–
Cc1ncc(F)cc1[C@H]1CCCN1c1ccn2ncc(C(=O)N3CC(O)C3)c2n1 [Example 192, (R)-(5-(2-(5-fluoro-2-methylpyridin-3-yl)pyrrolidin-1-yl)pyrazolo[1,5-a]pyrimidin-3-yl)(3-hydroxyazetidin-1-yl)methanone]	0.438	> 1	–
C[C@H](CO)NC(=O)c1cnn2ccc(N3CCC[C@@H]3c3cncc(F)c3)nc12 [Example 115, 5-((R)-2-(5-fluoropyridin-3-yl)pyrrolidin-1-yl)-N-((R)-1-hydroxypropan-2-yl)pyrazolo[1,5-a]pyrimidine-3-carboxamide]	0.0153	> 1	–
COc1ncc(F)cc1[C@H]1CCCN1c1ccn2ncc(C(=O)NOCCOC(C)(C)C)c2n1 [Example 152, (R)-N-(2-tert-butoxyethoxy)-5-(2-(5-fluoro-2-methoxypyridin-3-yl)pyrrolidin-1-yl)pyrazolo[1,5-a]pyrimidine-3-carboxamide]	0.0181	> 1	–
COc1ncc(F)cc1[C@H]1CCCN1c1ccn2ncc(C(=O)NC[C@H](O)CO)c2n1 [Example 143, N—((S)-2,3-dihydroxypropyl)-5-((R)-2-(5-fluoro-2-methoxypyridin-3-yl)pyrrolidin-1-yl)pyrazolo[1,5-a]pyrimidine-3-carboxamide]	0.008	> 1	–
COc1ncc(F)cc1[C@H]1CCCN1c1ccn2ncc(C(=O)N3CC(O)C3)c2n1 [Example 139, (R)-(5-(2-(5-fluoro-2-methoxypyridin-3-yl)pyrrolidin-1-yl)pyrazolo[1,5-a]pyrimidin-3-yl)(3-hydroxyazetidin-1-yl)methanone]	0.0327	> 1	–
CC1(NC(=O)c2cnn3ccc(N4CCC[C@@H]4c4cncc(F)c4)nc23)CCC1 [Example 102, (R)-5-(2-(5-fluoropyridin-3-yl)pyrrolidin-1-yl)-N-(1-methylcyclobutyl)pyrazolo[1,5-a]pyrimidine-3-carboxamide]	0.0052	> 1	–
COc1ncc(F)cc1[C@H]1CCCN1c1ccn2ncc(C(=O)N3CC(C)(O)C3)c2n1 [Example 147, (R)-(5-(2-(5-fluoro-2-methoxypyridin-3-yl)pyrrolidin-1-yl)pyrazolo[1,5-a]pyrimidin-3-yl)(3-hydroxy-3-methylazetidin-1-yl)methanone]	0.0308	> 1	–
NC(=O)c1cnn2ccc(N3CCC[C@@H]3c3cc(F)ccc3OCCN3CCOCC3)nc12 [Example 86, (R)-5-(2-(5-fluoro-2-(2-morpholinoethoxy)phenyl)pyrrolidin-1-yl)pyrazolo[1,5-a]pyrimidine-3-carboxamide]	0.0267	> 1	–

The next compounds have a lower IC50 [1] than those just listed; values first:

IC50 [1] [µM]	IC50 (Human Jak2 kinase domain; [2]) [µM]	IC50 (Human Jak2 kinase domain) [µM]	Structure (SMILES)
0.0039	> 1	–	CC1(C)OCC(COc2cc(F)cc([C@H]3CCCN3c3ccn4ncc(C(=O)NC5CC5)c4n3)c2)O1 (stereo partly drawn) [Example 206, N-cyclopropyl-5-((2R)-2-(3-((2,2-dimethyl-1,3-dioxolan-4-yl)methoxy)-5-fluorophenyl)pyrrolidin-1-yl)pyrazolo[1,5-a]pyrimidine-3-carboxamide]
0.00253	> 1	–	O=C(NC[C@H](O)CO)c1cnn2ccc(N3CCC[C@@H]3c3cc(F)ccc3C(F)(F)F)nc12 [Example 62, N—((S)-2,3-dihydroxypropyl)-5-((R)-2-(5-fluoro-2-(trifluoromethyl)phenyl)pyrrolidin-1-yl)pyrazolo[1,5-a]pyrimidine-3-carboxamide]
0.0024	> 1	–	C[C@H](O)CNC(=O)c1cnn2ccc(N3CCC[C@@H]3c3cc(F)ccc3F)nc12 [Example 166, 5-((R)-2-(2,5-difluorophenyl)pyrrolidin-1-yl)-N-(2-hydroxypropyl)pyrazolo[1,5-a]primidine-3-carboxamide]
0.0021	> 1	–	CNC(=O)c1cnn2ccc(N3CCC[C@@H]3c3cc(F)cnc3OC)nc12 [Example 153, (R)-5-(2-(5-fluoro-2-methoxypyridin-3-yl)pyrrolidin-1-yl)-N-methylpyrazolo[1,5-a]pyrimidine-3-carboxamide]
0.0021	> 1	–	Cn1cc(CNC(=O)c2cnn3ccc(N4CCC[C@@H]4c4cc(F)ccc4F)nc23)cn1 [Example 22, (R)-5-(2-(2,5-difluorophenyl)pyrrolidin-1-yl)-N-((1-methyl-1H-pyrazol-4-yl)methyl)pyrazolo[1,5-a]pyrimidine-3-carboxamide]
0.00155	> 1	–	Cn1ccc(NC(=O)c2cnn3ccc(N4CCC[C@@H]4c4cc(F)ccc4F)nc23)n1 [Example 6, (R)-5-(2-(2,5-difluorophenyl)pyrrolidin-1-yl)-N-(1-methyl-1H-pyrazol-3-yl)pyrazolo[1,5-a]pyrimidine-3-carboxamide]
0.0013	–	0.698	COc1ncc(F)cc1[C@H]1CCCN1c1ccn2ncc(C(=O)NC3CC3)c2n1 [Example 79, (R)—N-cyclopropyl-5-(2-(5-fluoro-2-methoxypyridin-3-yl)pyrrolidin-1-yl)pyrazolo[1,5-a]pyrimidine-3-carboxamide]
0.0013	–	> 1	CC(C)(C#N)NC(=O)c1cnn2ccc(N3CCC[C@@H]3c3cc(F)ccc3F)nc12 [Example 38, (R)—N-(2-cyanopropan-2-yl)-5-(2-(2,5-difluorophenyl)pyrrolidin-1-yl)pyrazolo[1,5-a]pyrimidine-3-carboxamide]
0.00045	0.107	–	O=C(N[C@H]1CC[C@H](O)CC1)c1cnn2ccc(N3CCC[C@@H]3c3cc(F)ccc3F)nc12 [Example 7, 5-((R)-2-(2,5-difluorophenyl)pyrrolidin-1-yl)-N-((trans)-4-hydroxycyclohexyl)pyrazolo[1,5-a]pyrimidine-3-carboxamide]
0.0002	> 1	–	COc1ncc(F)cc1[C@H]1CCCN1c1ccn2ncc(C(=O)NCCO)c2n1 [Example 155, (R)-5-(2-(5-fluoro-2-methoxypyridin-3-yl)pyrrolidin-1-yl)-N-(2-hydroxyethyl)pyrazolo[1,5-a]pyrimidine-3-carboxamide]
